As a reminder, the IC50 is the concentration needed to halve the response being measured.

For the experiment, the target named is human recombinant PARG (Homo sapiens (Human), UniProt Q86W56). As to the kind of experiment: PARG Activity Assay. In kind it is biochemical. The following applies: recombinant human PARG 0.0185 nM, 1 hour pre-incubation, poly (ADP-ribose) substrate-coated plate, Abs 450. The protocol: In order to evaluate the PARG inhibitory activity of the present compound, the inhibitory activity of each test compound against human recombinant PARG was measured. The specific procedure is described below.
Test compound was dissolved in dimethyl sulfoxide and prepared a 10 mM stock solution.
PARG Activity Assay was performed in Streptavidin-coated 96-well plates. […] The substrate solution was added to the 96-well plate at the volume of 200 micro liter per well and incubated for 3 hours at room temperature. After the incubation, the substrate solution was discarded and assay plate was washed 4 times with 220 micro liter of PBS containing 0.1% Tween20 (PBST). […] The diluted enzyme solution was pre-incubated with compounds for 1 hour at room temperature in a 96-well plate and transferred 100 micro liter per well to the poly (ADP-ribose) substrate-coated assay plate. The plate was incubated for 1 hour at 25° C. and then washed 4 times with 220 micro liters of PBST. For the detection of non-digested poly (ADP-ribose) polymer on the plate, mouse anti-poly (ADP-ribose) antibody diluted with 0.2% BSA containing PBS was added 100 micro liters per well and incubated 1 hour at room temperature. Plate was washed 4 times with TBST and 100 micro liter of HRP-labeled anti-mouse Ig antibody was added to the wells. Plate was incubated for 30 minutes at room temperature and then washed 4 times with PBST. For the detection 100 micro liters of TMB substrate solution was added to the wells. After sufficient color development, reaction was stopped by addition of 50 micro liter of 0.2 M […]. The 450 nm absorbance (Abs 450) of each well was read with a micro plate reader. The assay was performed by duplicated and average of 2 independent assays were used for the determination of PARG inhibitor y activity.
Wells treated with dimethyl sulfoxide instead of test compound solution were designated as a Negative Control of assay
Wells treated with 0.2% BSA containing PBS instead of recombinant human PARG protein and with dimethyl sulfoxide instead of test compound solution were designated as a Positive Control of assay.
The PARG Inhibitory Activity (%) was determined by the following formulation.
PARG Inhibitory Activity (%)=[(AbsX−AbsA)/(AbsB−AbsA)]×100
(wherein, • AbsA is absorbance (Abs 450) of Negative Control wells • AbsB is absorbance (Abs 450) of Positive Control wells • AbsX is absorbance (Abs 450) of wells treated with test compound.)
In Table, Ex indicates an Example number shown below.

Sequence of human recombinant PARG (Q86W56 whole entry): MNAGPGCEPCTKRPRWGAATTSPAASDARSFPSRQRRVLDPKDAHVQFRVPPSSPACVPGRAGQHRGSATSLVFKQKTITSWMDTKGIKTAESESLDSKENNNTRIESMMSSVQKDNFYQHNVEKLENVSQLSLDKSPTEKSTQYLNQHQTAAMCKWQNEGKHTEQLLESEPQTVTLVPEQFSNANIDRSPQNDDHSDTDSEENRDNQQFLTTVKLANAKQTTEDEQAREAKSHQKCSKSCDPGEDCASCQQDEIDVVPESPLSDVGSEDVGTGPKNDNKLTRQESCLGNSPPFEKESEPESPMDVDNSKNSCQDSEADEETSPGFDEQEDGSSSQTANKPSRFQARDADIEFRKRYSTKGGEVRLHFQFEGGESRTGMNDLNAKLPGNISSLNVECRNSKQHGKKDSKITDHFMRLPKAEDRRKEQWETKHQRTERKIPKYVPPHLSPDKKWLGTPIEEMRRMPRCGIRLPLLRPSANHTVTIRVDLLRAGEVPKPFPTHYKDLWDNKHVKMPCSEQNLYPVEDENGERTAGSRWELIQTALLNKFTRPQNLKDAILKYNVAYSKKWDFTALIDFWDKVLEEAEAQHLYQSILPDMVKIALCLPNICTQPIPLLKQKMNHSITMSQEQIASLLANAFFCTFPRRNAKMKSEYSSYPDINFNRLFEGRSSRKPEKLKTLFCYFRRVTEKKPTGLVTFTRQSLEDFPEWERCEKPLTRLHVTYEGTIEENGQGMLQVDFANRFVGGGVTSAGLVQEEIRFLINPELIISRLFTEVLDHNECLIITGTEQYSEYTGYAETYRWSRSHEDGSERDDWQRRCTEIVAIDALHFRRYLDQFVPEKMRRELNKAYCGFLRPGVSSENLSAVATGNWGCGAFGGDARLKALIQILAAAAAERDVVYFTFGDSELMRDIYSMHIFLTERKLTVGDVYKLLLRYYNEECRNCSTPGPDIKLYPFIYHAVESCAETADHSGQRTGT

In the case of `CN(c1ccc(Cn2c(=O)n(Cc3cnn(C)c3)c(=O)c3cc(S(=O)(=O)NC4(C)CC4)sc32)cc1F)C1CC1` [Ex 74], the IC50 was determined as 210 nM. In the case of `COCCN(C)c1ccc(Cn2c(=O)n(Cc3cnn(C)c3)c(=O)c3cc(S(=O)(=O)NC4(C)CC4)sc32)cc1F` [Ex 75], the half-maximal inhibitory concentration (IC50) was found to be 130 nM. In the case of `CN(CCO)c1ccc(Cn2c(=O)n(Cc3cnn(C)c3)c(=O)c3cc(S(=O)(=O)NC4(C)CC4)sc32)cc1F` [Ex 76] it was 57 nM; in that of `COCCNc1ncc(Cn2c(=O)n(Cc3cnn(C)c3)c(=O)c3cc(S(=O)(=O)NC4(C)CC4)sc32)cn1` [Ex 79], 70 nM; in that of `Cn1cc(Cn2c(=O)c3cc(S(=O)(=O)NC4(C)CC4)sc3n(Cc3cnc(NCCO)nc3)c2=O)cn1` [Ex 80], 420 nM. As to `Cn1cc(Cn2c(=O)c3cc(S(=O)(=O)NC4(C)CC4)sc3n(Cc3ccc(N4CCOCC4)nc3)c2=O)cn1` [Ex 81], the 50% inhibitory concentration (IC50) was 200 nM.

For `Cn1cc(Cn2c(=O)c3cc(S(=O)(=O)NC4(C)CC4)sc3n(Cc3ccc(N4CCCC4)nc3)c2=O)cn1` [Ex 82], the IC50 is 97 nM.

On to `Cn1cc(Cn2c(=O)c3cc(S(=O)(=O)NC4(C)CC4)sc3n(Cc3ccc(N4CC[C@H](O)C4)nc3)c2=O)cn1` [Ex 83], for which the IC50 came out at 110 nM. For the compound `CO[C@H]1CCN(c2ccc(Cn3c(=O)n(Cc4cnn(C)c4)c(=O)c4cc(S(=O)(=O)NC5(C)CC5)sc43)cn2)C1` [Ex 84], the IC50 was 200 nM. In the case of `Cn1cc(Cn2c(=O)c3cc(S(=O)(=O)NC4(C)CC4)sc3n(Cc3ccn(C)c(=O)c3)c2=O)cn1` [Ex 85] it was 110 nM; in that of `CC(=O)N1CCC(Cn2c(=O)n(Cc3cnn(C)c3)c(=O)c3cc(S(=O)(=O)NC4(C)CC4)sc32)CC1` [Ex 86], 160 nM; in that of `CN1CCC(Cn2c(=O)n(Cc3cnn(C)c3)c(=O)c3cc(S(=O)(=O)NC4(C)CC4)sc32)CC1=O` (centres unmarked) [Ex 87], 220 nM.

For `Cn1cc(Cn2c(=O)c3cc(S(=O)(=O)NC4(C)CC4)sc3n(Cc3ccc(=O)n(C)c3)c2=O)cn1` [Ex 88], the IC50 was 23 nM. For `COCc1cc2cc(Cn3c(=O)n(Cc4cnn(C)c4)c(=O)c4cc(S(=O)(=O)NC5(C)CC5)sc43)ccc2[nH]1` [Ex 89], the IC50 was 13 nM. In the case of `Cn1cc(Cn2c(=O)c3cc(S(=O)(=O)NC4(C)CC4)sc3n(Cc3ccc(N4CC(O)C4)nc3)c2=O)cn1` [Ex 90] it was 17 nM; in that of `CCC(=O)N1CCC(n2c(=O)n(Cc3cnn(C)c3)c(=O)c3cc(S(=O)(=O)NC4(C)CC4)sc32)CC1` [Ex 93], 180 nM.

Take `COCCC(=O)N1CCC(n2c(=O)n(Cc3cnn(C)c3)c(=O)c3cc(S(=O)(=O)NC4(C)CC4)sc32)CC1` [Ex 94]: the IC50 turned out to be 270 nM. As for `CNCCCC(=O)N1CCC(n2c(=O)n(Cc3cnn(C)c3)c(=O)c3cc(S(=O)(=O)NC4(C)CC4)sc32)CC1` [Ex 96], the figure is 130 nM. As for `Cc1nc(C)c(Cn2c(=O)n(Cc3cnn(C)c3)c(=O)c3cc(S(=O)(=O)NC4(C#N)CC4)sc32)s1` [Ex 101], the figure is 64 nM. As for `Cn1cc(Cn2c(=O)c3cc(S(=O)(=O)NC4(C#N)CC4)sc3n(Cc3ccc4oc(CO)cc4c3)c2=O)cn1` [Ex 102], the figure is 75 nM. As to `Cn1cc(Cn2c(=O)c3cc(S(=O)(=O)NC4(C#N)CC4)sc3n(Cc3ccc(F)cc3)c2=O)cn1` [Ex 103], the IC50 came out at 110 nM. Take `Cn1cc(Cn2c(=O)c3cc(S(=O)(=O)NC4(C)CC4)sc3n(Cc3ccc4c(n3)COC4)c2=O)cn1` [Ex 109]: the IC50 was determined as 45 nM. Regarding `CC(c1ccc2c(c1)COC2)n1c(=O)n(Cc2cnn(C)c2)c(=O)c2cc(S(=O)(=O)NC3(C)CC3)sc21` (centres unmarked) [Ex 112], the IC50 amounted to 140 nM. In the case of `Cc1cc2c(cc1Cn1c(=O)n(Cc3cnn(C)c3)c(=O)c3cc(S(=O)(=O)NC4(C)CC4)sc31)COC2` [Ex 113] it was 94 nM; in that of `Cc1cc(Cn2c(=O)n(Cc3cnn(C)c3)c(=O)c3cc(S(=O)(=O)NC4(C)CC4)sc32)cc2c1COC2` [Ex 114], 34 nM. Take `Cc1c(Cn2c(=O)n(Cc3cnn(C)c3)c(=O)c3cc(S(=O)(=O)NC4(C)CC4)sc32)ccc2c1COC2` [Ex 115]: the IC50 was 68 nM.

For the origin of these results see US20240083908A1, “TETRAHYDROTHIENOPYRIMIDINESULFONAMIDE COMPOUNDS” (priority 2020, published 2024).
